Measurements published in PubChem BioAssay AID1996.
Values after ≈ are worked out from the molar mass of the structure shown.

details: buffer; pH 7.4; 200.0 µM

Structure (SMILES) | solubility kinetic [µg/mL]
CC(C1CC1)N(Cc1ccccc1)C(=S)Nc1ccccc1Cl (centres undefined) | 1.1 (≈ 3.19 µM)
S=C(NCCCN1CCOCC1)N1CCOCC1 | > 41
CN1CCC(N(CCc2ccccc2)C(=O)CCC(=O)O)CC1 | > 47.8
Cc1ccccc1S(=O)(=O)N1CCN(C)CC1 | > 38.2
CC(C)(C)C(=O)/C=C1\SCC(=O)N1CC(=O)N1CCN(c2ccccc2)CC1 | 33.7 (≈ 83.9 µM)
Cc1cccc(-c2nc(C#N)c(N3CCC(C)CC3)o2)c1 | < 0.2
COc1ccccc1N1CCN(c2ccc(S(=O)(=O)N3CCN(C)CC3)cn2)CC1 | 26.9 (≈ 62.3 µM)
COC(=O)C1=C(C)N(C)C(=S)NC1c1cc(OC)ccc1OC (centres undefined) | 36.5 (≈ 108 µM)
CC(C(=O)OCC(=O)c1ccccc1)N1C(=O)C2C3CCC(C3)C2C1=O (centres undefined) | > 53.3
C=CCSc1nc(C)c(CC(=C)C)c(=O)[nH]1 | 32.2 (≈ 136 µM)
O=C(Nc1ccccc1)Nc1nc(-c2ccc(F)c(F)c2)cs1 | < 0.2
COc1ccc(NC(=O)c2cccc(NS(=O)(=O)c3ccccc3)c2)cc1 | 34.2 (≈ 89.4 µM)
O=C(O)c1ccc(NS(=O)(=O)c2cc(Cl)sc2Cl)cc1 | > 52.8
Cc1nn(CC(=O)NC2(C)CCS(=O)(=O)C2)c(C)c1S(=O)(=O)N(C)C (centres undefined) | > 58.9
CCN1C(=O)CS/C1=N\S(=O)(=O)c1ccccc1 | > 42.7
Cc1cc(Cl)ccc1NC(=O)c1ccc2c(c1)OCO2 | 2.5 (≈ 8.63 µM)
O=C1NC(c2cc(Cl)cc([N+](=O)[O-])c2O)Nc2ccccc21 (centres undefined) | > 48
CC1CCN(C(=O)COC(=O)CCC(=O)c2ccc(Cl)cc2)CC1 | 49.8 (≈ 142 µM)
N/C(COc1ccc(Cl)cc1Cl)=N\O | 28.8 (≈ 123 µM)

Structure (SMILES) | solubility kinetic [µg/mL]
Cc1ccc(S(=O)(=O)N2CC(C)C(=O)CC2C)cc1 (centres undefined) | 38.6 (≈ 137 µM)
CN(Cc1ccccc1)C(NC(=O)c1ccco1)C(Cl)(Cl)Cl (centres undefined) | 28.2 (≈ 78 µM)
CCC1Oc2ccccc2N(CC(=O)NC2CC2)C1=O (centres undefined) | > 41.1
CCOc1ccc(Cl)cc1S(=O)(=O)NC1CCCC1 | 38.8 (≈ 128 µM)
CCCN1CCC(N2CCCC(C(=O)O)C2)CC1.Cl (centres undefined) | > 49.1
Cl.N=c1ccn(Cc2c(Cl)cccc2Cl)cc1 | > 43.4
COc1cc2c(cc1OC)CN(C(=S)Nc1ccc(Cl)cc1)CC2 | < 0.4
CC1CCc2sc(C(=O)Nc3ccc(C(N)=O)cc3)cc2C1 (centres undefined) | 3.4 (≈ 10.8 µM)
O=C(Nc1ccc2c(c1)C(=O)OC2)c1ccc(Cl)cc1 | < 0.6
COCCNS(=O)(=O)c1cc(OC)c(C)cc1C | > 41
OCC1(Cc2ccccc2)CCN(Cc2ccccn2)CC1 | > 44.5
O=[N+]([O-])c1ccc(OCc2n[nH]c(=S)n2-c2ccccc2)cc1 | > 49.3
CC(C)CC1C(C#N)=C(N)OC2=C1C(=O)CC(c1ccccc1)C2 (centres undefined) | 37.6 (≈ 117 µM)
CC(=O)N/C(=C\c1ccccc1)C(=O)OCC(=O)c1c(N)n(C)c(=O)n(C)c1=O | 18.2 (≈ 45.5 µM)
Cc1ccccc1C(=O)Nc1ccc2nc3n(c(=O)c2c1)CCCC3 | 37.5 (≈ 112 µM)
CC1(c2ccc(NC(=O)c3ccccc3F)cc2)CC1(Cl)Cl (centres undefined) | < 0.7
Cc1cc(NC(=O)C(C)Oc2ccc(Cl)cc2Cl)no1 (centres undefined) | 9.1 (≈ 28.9 µM)
O=C(O)c1ccc2ncsc2c1 | > 26.9
COc1ccc(N2CCN(CC(=O)c3ccc(Cl)cc3)CC2)cc1 | 45.7 (≈ 133 µM)

Now from value to compound:

solubility kinetic [µg/mL] | Structure (SMILES)
4.2 (≈ 12.7 µM) | O=C(NCCc1c[nH]c2ccccc12)C(=O)c1c[nH]c2ccccc12
13.9 (≈ 47.9 µM) | Cc1ccc(C)n1-c1cccc(C(=O)Nc2ccccc2)c1
> 54.3 | Cc1cccnc1NC(=O)CCNC(=O)c1ccc(Br)cc1
33.3 (≈ 128 µM) | CC1=CCC(C(=O)O)C(C(=O)Nc2cccnc2)C1 (centres undefined)
11.2 (≈ 32.1 µM) | CC(c1ccccc1)n1c(Br)nc2c1c(=O)[nH]c(=O)n2C (centres undefined)
15.6 (≈ 42.6 µM) | O=C(Nc1cccc(S(=O)(=O)N2CCCC2)c1)c1ccc(Cl)nc1
38.9 (≈ 124 µM) | CC(=O)Oc1ccc(C(=O)Nc2ccc3c(c2)OCCO3)cc1
6 (≈ 20.6 µM) | CC(C)(CCl)C(=O)Nc1ccnc(-c2ccncc2)n1
44.8 (≈ 132 µM) | CCC(Sc1nc(-c2ccccc2)c(-c2ccccc2)[nH]1)C(=O)O (centres undefined)
45.3 (≈ 137 µM) | COc1ccccc1-n1ccnc1SCC(=O)NC1CCCC1
> 48.4 | COc1ccc(C(=O)O)cc1S(=O)(=O)NCc1ccccn1
> 38.3 | Cc1cc(C)cc(NC(=O)NCc2ccccn2)c1
30.7 (≈ 108 µM) | CCc1cccc(CC)c1C(OC(C)=O)c1cccnc1 (centres undefined)
> 45.3 | CCOc1ccc(NC(=O)CCNC(=O)c2ccco2)cc1
> 43.3 | CCCC(=O)Nc1ccc(NCc2ccc(C)s2)cc1
> 53.8 | COc1ccc(CC(=O)NC(CC(=O)O)c2cccc([N+](=O)[O-])c2)cc1 (centres undefined)
> 49.9 | O=C(CN1CCN(c2ccccn2)CC1)Nc1ccc(F)cc1F
16.5 (≈ 49 µM) | Cc1cccc(CC2CC(=O)N(c3nc4ccccc4s3)C2=O)c1 (centres undefined)
> 45.7 | Cc1ccnc(NC(=O)CCS(=O)(=O)c2ccccc2)c1
> 50 | CC(=O)c1cccc(-n2c(CCC(=O)O)ccc2-c2ccccc2)c1
29.5 (≈ 130 µM) | Cc1cc(C(=O)NC2CC2)c2ccccc2n1
